# In patent publication US6407103B2, “Indeno [1,2-c] pyrazol-4-ones and their uses” (Bristol-Myers Squibb Pharma Company, priority 1998, dated 2002):
# Counter-ions that a name gives are not always drawn.
row,Compound,melting point [°C]
1,"O=C(Nc1cccc2c1C(=O)c1c-2n[nH]c1-c1ccc(C(=O)[C@]23CN[C@H](CN2)C3)s1)NN1CCOCC1 (as salt: TFA) [Example CLVI, 3-(5-(((1S,4S)-(+)-2,5-diazabicyclo[2.2.1]heptyl)carbonyl)-2-thienyl)-5-(morpholinocarbamoylamino)indeno [1,2-c]pyrazol-4-one]",> 300
2,"CC(=O)Nc1cccc2c1C(=O)c1c-2n[nH]c1-c1cccnc1 [Example XLVIII, 3-(3-pyridyl)-5-(acetamido)indeno [1,2-c]pyrazol-4-one]",> 300
3,"COc1ccc(-c2[nH]nc3c2C(=O)c2c(NC(C)=O)cccc2-3)cc1OC [Example XVI, 3-(3,4-dimethoxyphenyl)-5-(acetamido)indeno[1,2-c]pyrazol-4-one]",> 300
4,"O=C(Nc1cccc2c1C(=O)c1c-2n[nH]c1-c1ccc(C(=O)NC2CCCNC2)s1)NN1CCOCC1 (stereo not drawn) (as salt: TFA) [Example CLXVIII, 3-(5-((3-piperidyl)aminocarbonyl)-2-thienyl)-5-(morpholinocarbamoylamino)indeno[1,2-c]pyrazol-4-one]",> 300
5,"CC(=N)N1CCN(c2ccc(-c3[nH]nc4c3C(=O)c3c(NC(=O)NN5CCOCC5)cccc3-4)cc2)CC1 (as salt: TFA) [Example CCLIII, 3-(4-(4-(1-iminoethyl)piperazino)phenyl)-5-(morpholinocarbamoylamino)indeno[1,2-c]pyrazol-4-one]",240
6,"Cc1ccsc1-c1[nH]nc2c1C(=O)c1c(NC(N)=O)cccc1-2 [Example XCVII, 3-(3-methyl-2-thienyl)-5-(carbamoylamino)indeno[1,2-c]pyrazol-4-one]",270
7,"CC(=O)N[C@H]1CCN(C(=O)c2ccc(-c3[nH]nc4c3C(=O)c3c(NC(=O)NN5CCOCC5)cccc3-4)s2)C1 (as salt: TFA) [Example CLXXVII, 3-(5-(3(S)-acetamidopyrrolidinocarbonyl)-2-thienyl)-5-(morpholinocarbamoylamino)indeno[1,2-c]pyrazol-4-one]",264
8,"Nc1ccc(CC(=O)N2CCC(c3[nH]nc4c3C(=O)c3c(NC(=O)NN5CCOCC5)cccc3-4)CC2)cc1 (as salt: TFA) [Example CCXCIV, 3-(1-(4-aminobenzylcarbonyl)piperidin-4-yl)-5-(morpholinocarbamoylamino)indeno[1,2-c]pyrazol-4-one]",177
9,"CC(C)(C)OC(=O)Nc1ccc(C(=O)N2CCC(c3[nH]nc4c3C(=O)c3c(NC(=O)NN5CCOCC5)cccc3-4)CC2)cc1 [Example CCXCIX, 3-(1-(4-(t-butoxycarbonylamino)phenylcarbonyl)piperidin-4-yl)-5-(morpholinocarbamoylamino)indeno[1,2-c]pyrazol-4-one]",212
10,"COC[C@H]1CCCN1C(=O)c1ccc(-c2[nH]nc3c2C(=O)c2c(NC(=O)NN4CCOCC4)cccc2-3)s1 (as salt: TFA) [Example CLXXXVI, 3-(5-(2(R)-(methoxymethyl)pyrrolidinocarbonyl)-2-thienyl)-5-(morpholinocarbamoylamino)indeno[1,2-c]pyrazol-4-one]",262
11,O=C(Nc1cccc2c1C(=O)c1c-2n[nH]c1-c1ccc(C(=O)NC2CN3CCC2CC3)s1)NN1CCOCC1 (stereo not drawn) (as salt: TFA),245
12,"CCCC(=O)Nc1cccc2c1C(=O)c1c-2n[nH]c1-c1ccc(OC)cc1 [Example IX, 3-(4-methoxyphenyl)-5-(butanamido)indeno[1,2-c]pyrazol-4-one]",282
13,"COc1ccc(-c2[nH]nc3c2C(=O)c2c(NC(=O)CN4CCN(CCN)CC4)cccc2-3)cc1 [Example LXXI, 3-(4-methoxyphenyl)-5-(4-(aminoethyl)piperazinoacetamido)indeno[1,2-c]pyrazol-4-one]",> 300
14,"COc1ccc(-c2[nH]nc3c2C(=O)c2c(NC(=O)Cc4ccc(N=[N+]=[N-])cc4)cccc2-3)cc1 [Example XL, 3-(4-methoxyphenyl)-5-((4-azidophenyl)acetamido)indeno[1,2-c]pyrazol-4-one]",> 300
15,"COc1ccc(-c2[nH]nc3c2C(=O)c2c(NC(=O)N[C@@H]4CCCC[C@@H]4N)cccc2-3)cc1 (relative stereo) [Example LXVII, 3-(4-methoxyphenyl)-5-((cis-2-aminocyclohexylcarbamoyl)amino)indeno[1,2-c]pyrazol-4-one]",> 300
16,"CC(=O)Nc1cccc2c1C(=O)c1c-2n[nH]c1-c1sccc1C [Example XC, 3-(3-methyl-2-thienyl)-5-(acetamido)indeno[1,2-c]pyrazol-4-one]",275
17,"CC(=O)Nc1ccc(NC(=O)c2ccc(-c3[nH]nc4c3C(=O)c3c(NC(=O)NN5CCOCC5)cccc3-4)s2)cc1 (as salt: TFA) [Example CXCVII, 3-(5-((4-acetamidophenyl)aminocarbonyl)-2-thienyl)-5-(morpholinocarbamoylamino)indeno[1,2-c]pyrazol-4-one]",253
18,"CC(C)(C)OC(=O)N[C@H]1CC[C@H](C(=O)N2CCC(c3[nH]nc4c3C(=O)c3c(NC(=O)NN5CCOCC5)cccc3-4)CC2)CC1 [Example CCLXXXVI, 3-(1-(trans-4-(t-butoxycarbonylamino)cyclohexylcarbonyl)piperidin-4-yl)-5-(morpholinocarbamoylamino)indeno[1,2-c]pyrazol-4-one]",178

# Other lines, results leading:
row,melting point [°C],Compound
1,218,"O=C(Nc1cccc2c1C(=O)c1c-2n[nH]c1C1CCN(C(=O)c2cccs2)CC1)NN1CCOCC1 (as salt: TFA) [Example CCLXV, 3-(1-(2-thienylcarbonyl)piperidin-4-yl)-5-(morpholinocarbamoylamino)indeno[1,2-c]pyrazol-4-one]"
2,231,"CC(C)c1[nH]nc2c1C(=O)c1c(NC(=O)NN3CCN(C)CC3)cccc1-2 [Example CXXI, 3-(i-propyl)-5-((4-methylpiperazino)carbamoylamino)indeno [1,2-c]pyrazol-4-one]"
3,245,"CCN1CCN(c2ccc(-c3[nH]nc4c3C(=O)c3c(NC(=O)NN5CCOCC5)cccc3-4)cc2)CC1 (as salt: TFA) [Example CCXIX, 3-(4-(4-ethylpiperazino)phenyl)-5-(morpholinocarbamoylamino)indeno[1,2-c]pyrazol-4-one]"
4,> 300,"CN1CCN(CC(=O)Nc2cccc3c2C(=O)c2c-3n[nH]c2-c2ccc(N(C)C)cc2)CC1 [Example LXXVIII, 3-(4-(dimethylamino)phenyl)-5-((4-methylpiperazino)acetamido)indeno[1,2-c]pyrazol-4-one]"
5,279,"O=C(Nc1cccc2c1C(=O)c1c-2n[nH]c1-c1ccc(N2CCNCC2)cc1)NN1CCN(CCO)CC1 (as salt: TFA) [Example CCXXVIII, 3-(4-piperazinophenyl)-5-((4-(2-hydroxyethyl)piperazino)carbamoylamino)indeno[1,2-c]pyrazol-4-one]"
6,270,"CN1CCN(NC(=O)Nc2cccc3c2C(=O)c2c-3n[nH]c2-c2ccc(C(=O)O)s2)CC1 [Example CXXIII, 3-(5-carboxyl-2-thienyl)-5-((4-methylpiperazino)carbamoylamino)indeno [1,2-c]pyrazol-4-one]"
7,258,"CN(C)C1CCN(c2ccc(-c3[nH]nc4c3C(=O)c3c(NC(=O)NN5CCOCC5)cccc3-4)cc2)CC1 (as salt: TFA) [Example CCXLVIII, 3-(4-(4-(N,N-dimethylamino)piperidino)phenyl)-5-(morpholinocarbamoylamino)indeno[1,2-c]pyrazol-4-one]"
8,225,"CN1C[C@@H]2C[C@H]1CN2C(=O)N1CCC(c2[nH]nc3c2C(=O)c2c(NC(=O)NN4CCOCC4)cccc2-3)CC1 (as salt: TFA) [Example CCLXXIII, 3-(1-(((1S,4S)-(+)-5-methyl-2,5-diazabicyclo[2.2.1]hept-2-yl)carbonyl)piperidin-4-yl)-5-(morpholinocarbamoylamino)indeno[1,2-c]pyrazol-4-one]"
9,185,"CN(C)C1CCN(C(=O)c2ccc(-c3[nH]nc4c3C(=O)c3c(NC(=O)NN5CCOCC5)cccc3-4)s2)CC1 (as salt: TFA) [Example CLVIII, 3-(5-(4-(N,N-dimethylamino)piperidinocarbonyl)-2-thienyl)-5-(morpholinocarbamoylamino)indeno[1,2-c]pyrazol-4-one]"
10,293,"CN1CCN(NC(=O)Nc2cccc3c2C(=O)c2c-3n[nH]c2-c2ccc(N3CCN(C)CC3)cc2)CC1 (as salt: TFA) [Example CCXXIV, 3-(4-(4-methylpiperazino)phenyl)-5-((4-methylpiperazino)carbamoylamino)indeno[1,2-c]pyrazol-4-one]"
11,259,"COC(=O)[C@H]1CC[C@H](c2[nH]nc3c2C(=O)c2c(NC(=O)NN4CCOCC4)cccc2-3)CC1 (as salt: TFA) [Example CCCI, 3-(trans-4-(methoxycarbonyl)cyclohexyl)-5-(morpholinocarbamoylamino)indeno[1,2-c]pyrazol-4-one]"
12,202,"O=C(Nc1cccc2c1C(=O)c1c-2n[nH]c1C1CCN(C(=O)n2ccnc2)CC1)NN1CCOCC1 (as salt: TFA) [Example CCLXIV, 3-(1-(imidazol-1-ylcarbonyl)piperidin-4-yl)-5-(morpholinocarbamoylamino)indeno[1,2-c]pyrazol-4-one]"
13,237,"C[C@@H]1CN(c2ccc(-c3[nH]nc4c3C(=O)c3c(NC(=O)NN5CCOCC5)cccc3-4)cc2)C[C@H](C)N1 (as salt: TFA) [Example CCXXXVIII, 3-(4-(cis-3,5-dimethylpiperazino)phenyl)-5-(morpholinocarbamoylamino)indeno[1,2-c]pyrazol-4-one]"
14,250,"Cc1cc(-c2[nH]nc3c2C(=O)c2c(NC(=O)NN4CCN(C)CC4)cccc2-3)c(C)s1 [Example CXXIV, 3-(2,5-dimethyl-3-thienyl)-5-((4-methylpiperazino)carbamoylamino)indeno [1,2-c]pyrazol-4-one]"
15,246,"CO[C@H]1CC[C@H](C(=O)N2CCC(c3[nH]nc4c3C(=O)c3c(NC(=O)NN5CCOCC5)cccc3-4)CC2)CC1 (as salt: TFA) [Example CCXCII, 3-(1-(trans-4-methoxycyclohexylcarbonyl)piperidin-4-yl)-5-(morpholinocarbamoylamino)indeno[1,2-c]pyrazol-4-one]"
